# Assay results published in US10918653B2, “Bovine milk oligosaccharides” (The Regents of the University of California, priority 2010, dated 2021).
# Legend:
# Vibrio cholerae = type: cell-based; details: sugar in MacConkey medium; BMO 2 g per 100 ml; strains 10, 11
# Salmonella typhimurium = type: cell-based, Salmonella enterica seovar Typhimurium; details: sugar in MacConkey medium; BMO 2 g per 100 ml; strains 4, 6, 7
# E. coli O157:H7 = type: cell-based; details: sugar in MacConkey medium; BMO 2 g per 100 ml; strain 3
# Listeria monocytognes = experiment: Growth on MacConkey agar plates (lactose or BMO); type: cell-based, Listeria monocytogenes; details: sugar in MacConkey medium; BMO 2 g per 100 ml; strain 8
# Description: (§1) FIGS. 3A-3B illustrate growth of select pathogens on BMO. […] The Lac operon permease can transport BMO trimers and tetramers. […] BMOs were suspended at 1 gr/10 mL of sterile water, 10 N NaOH was added until the pH was 7. The BMO solution was used in a MacConkey medium to generate agar plates.
# [1] = system: E. coli K12 (DH5alpha, lac minus); experiment: Growth on MacConkey agar plates (lactose or BMO); type: cell-based; details: sugar in MacConkey medium; BMO 2 g per 100 ml; strain 2
# Description: as §1
# E. coli K12 = experiment: Growth on MacConkey agar plates (lactose or BMO); type: cell-based; details: sugar in MacConkey medium; BMO 2 g per 100 ml; strain 1
# Description: as §1
# [2] = system: Salmonella typhimurium+lac operon; experiment: Growth on MacConkey agar plates (lactose or BMO); type: cell-based; details: sugar in MacConkey medium; BMO 2 g per 100 ml; strain 5
# Description: as §1
# Yersinia enterocolitica = experiment: Growth on MacConkey agar plates (lactose or BMO); type: cell-based; details: sugar in MacConkey medium; BMO 2 g per 100 ml; strain 9
# Description: as §1
compound,measurement,setting,value
OC[C@H]1O[C@@H](O[C@H]2[C@H](O)[C@@H](O)C(O)O[C@@H]2CO)[C@H](O)[C@@H](O)[C@H]1O (some centres unmarked) [Lactose],growth on MacConkey agar plate,Vibrio cholerae,negative
same,growth on MacConkey agar plate,Salmonella typhimurium,negative
same,growth on MacConkey agar plate (red strikes),E. coli O157:H7,growth observed
same,growth on MacConkey agar plate,Listeria monocytognes,negative
same,growth on MacConkey agar plate,[1],negative
same,growth on MacConkey agar plate (red strikes),E. coli K12,growth observed
same,growth on MacConkey agar plate (red strikes),[2],growth observed
same,growth on MacConkey agar plate,Yersinia enterocolitica,negative
